Results from US5395828A, “Inositol phosphate analogues as calcium-antagonistic substances” (Hoechst Aktiengesellschaft, priority 1991, dated 1995).

Test system: human platelets
Experiment: Calcium release in saponin-permeabilized human platelets (Quin2 fluorescence)
Assay type: cell-based
Conditions: Platelet, pH 7.4, increase in Quin2-fluorescence, read-out: EC50 (effective concentration), release of Calcium
Description: Human platelets were purified in the presence of citrate by differential centrifugation and resuspended to ca 1×10exp9 cells/ml in Tyrode-HEPES-(N-2-hydroxyethyl-piperazine-N'-2 ethane-sulfonic acid)-buffer pH 7.4 containing 0.2% w/v Bovine Serum Albumin and 1 mM EGTA (Ethylene Glycol Bis (β-Aminoethyl Ether)N,N,N',N'-Tetraacidic acid). After 20 min, the platelets were centrifuged again (700×g, 20 min) and resuspended to the same concentration in 4 ml of "assay-buffer" containing:
1.2 mM Potassiumdihydrogenphosphate
25 mM HEPES-buffer, pH as indicated
After a further 30 min, the platelet suspension was diluted 5-fold into assay-buffer containing 2 μM Quin2 (2-[[2-[bis(carboxymethyl)amino]-5-methyl-phenoxy]methyl]-6-methoxy-8-[bis[…]]quinoline) salt as a fluorescence indicator for Calcium. To this suspension Saponin was added to a final concentration of 20 μg/ml to permeabilize the cells. The fluorescence of the suspension was continually monitored with a fluorescence spectrometer until a stable baseline was achieved. At this point, IP3 was added and the resulting release of Calcium measured as an increase in the intensity of the Quin2-fluorescence. An EC50 (effective concentration) value of 2×10exp-7M was obtained at pH 7.4. IP2-5-MP itself had no effect on release of Calcium. […]

O=P(O)(O)O[C@@H]1[C@H](O)[C@H](O)[C@@H](OP(=O)(O)O)[C@H](OP(=O)(O)O)[C@H]1O [IP3, d-myo inositol(1.4.5)trisphosphate]
EC50: 200 nM
